Assay results reported in patent US4927937A, “Pharmacologically active ε-valerolactams” (Chinese Academy of Medical Science, priority 1986, dated 1990).

How the values were obtained:
[1] = animal tests, literature report; cited from earlier work
[2] = tested on: CCl4 intoxicated mice (SGPT); test: Hepatoprotective action: SGPT of CCl4 intoxicated mice; format: in vivo, mouse (male Kunming strain); settings: 250 mg/kg × 2 orally at 8 h interval, 0.1% CCl4 10 ml/kg injected 24 h after second dose, 9 mice per group; P <0.01; control 1678 + 261
Method: Male Kunming strain mice weighing 18-22 grams were used throughout the experiments. The compounds to be tested were suspended in 5% Tween 80 and given orally by gavage. The vehicle of 5% Tween 80 solution was administered to control mice via the same route. In in vitro experiments, the compounds were dissolved in dimethylformamide and added directly into the incubation mixture.
Mice were divided into several groups. The control group was administered the vehicle. The other groups were given two doses (250 mg/kg) of the compound at an interval of 8 h, respectively. 10 ml/kg of 0.1% CCl4 in vegetable oil was injected in 24 h after the second administration of the compound. The mice were fasted for 16 h and sacrificed by decapitation. SGPT and liver lipids were determined. A piece of liver was processed into sections for pathological observation.

[3] = tested on: male rats, retrograde amnesia under hypoxia; test: Retrograde amnesia (rat) under hypoxic conditions; format: in vivo; settings: 100 mg/kg p.o., hypoxia 3.8% oxygen, 15 animals per group
Method: The apparatus (39 cm long, 21 cm high, and 21 cm wide) consists of two compartments, one made of translucent plastic (29 cm long) and the other one painted black (10 cm long) It has a bottom of spaced metal grids which are connected to a stimulating device delivered 1.6 mA for 20 s.
Both compartments are connected via a door which can be closed.
Male rats (100-120 g body weight) will be placed individually in the large compartment and allowed to explore both compartments for 3 min.
Thereafter the animals are placed in the small (dark) compartment, the connecting door is closed and the foot shock is delivered. After that the animals are put in an air-tight cage which is prefused by a gas mixture containing 3.8% oxygen and 96.2% nitrogen.
24 hours later the rats are placed again in the bright compartment. The observation time is 3 min.
One experiment is performed in three groups of 15 animals each:
Group A: control group, not exposed to hypoxia
Group B: control group, receiving hypoxia after first training
Group C: treated animals, receiving hypoxia after first training.
Evaluation: the times the animals need to enter the dark compartment are measured in seconds. […]
The time difference between the control group B and the treated group C is calculated in percent (C-B=X%). X is considered to be measured for the potency of the antiamnestic effect of the substance tested.

C=CC(C)(C)c1cc2cc3c(cc2oc1=O)OC1(C)CCC(C(C)(C)O)OC1C3 (stereo not drawn) [Clausmarin A]
spasmolytic activity [1]: showed spasmolytic activity

CN1C=C(c2ccccc2)C(c2ccccc2)C(O)C1=O (stereo not drawn) [Example 1]
SGPT units % X ± SE [2]: 739 + 196 units %
X (antiamnestic effect, C-B in percent of A-B) [3]: 11%
